Consider eleven molecules from ChEMBL document CHEMBL1201862, “PubChem BioAssay data set” (2004).

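Where inhibition never reached the appropriate level, the endpoint shown equals the highest concentration tested. Otherwise, values were interpolated linearly from a five-concentration, 48-hour dose response in 96-well plates. At the GI50, growth is halved.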 Activity calls are given as the source filed them. Cut-off read from the data, not from the text of the source: active = GI50 up to about 1.1 µM and inactive = higher.

Test systems include A498; A549; CCRF-CEM; DU-145; HCC 2998; HT-29; IGROV-1; KM12; M14; MCF7; MDA-MB-231; Malme-3M; OVCAR-3; RPMI-8226; SF-295; SK-MEL-28; SK-MEL-2; SK-MEL-5; UACC-62; SF-539.
Common to all, as to assay: inhibition of tumour cell growth, NCI panel, 48 h

For the molecule `CN(C)CCNC1=Nc2ccccc2C(=S)N2CSCC12` (stereo not drawn), the GI50 with A498 is > 100 µM (inactive); in the test on A549 it was > 100 µM (inactive); with CCRF-CEM it was > 100 µM (inactive); in the test on DU-145 it was 74.8 µM (inactive); with HCC 2998, > 100 µM (inactive); in the test with HT-29, > 100 µM (inactive). Also, the GI50 with IGROV-1, in the test on KM12, with M14, in the test with MCF7, in the test on MDA-MB-231 and in the test with Malme-3M was > 100 µM (inactive) throughout. In addition, the GI50 in the test on OVCAR-3, with RPMI-8226, with SF-295, in the test with SK-MEL-28, in the test on SK-MEL-2 and in the test with SK-MEL-5 was > 100 µM (inactive) throughout. The GI50 in the test on UACC-62 was > 100 µM (inactive).

For the molecule `COCCNc1cncc(C(N)=O)c1`, the GI50 in the test on A498, in the test on A549, in the test on CCRF-CEM, in the test with DU-145, with HCC 2998 and in the test on HT-29 was > 100 µM (inactive) each time. Also, the GI50 in the test on IGROV-1, with KM12, in the test on M14, with MCF7, in the test with MDA-MB-231 and with OVCAR-3 was > 100 µM (inactive) in each case. Further, the GI50 with SF-295, in the test on SF-539, with SK-MEL-28, in the test with SK-MEL-2, in the test with SK-MEL-5 and in the test on UACC-62 was > 100 µM (inactive) each time.

Consider `O=C(NNc1ccc([N+](=O)[O-])cc1[N+](=O)[O-])/C(O)=C\C(=O)c1ccccc1`, for which the GI50 in the test on A498 is 28.9 µM (inactive); with A549 it was 17.6 µM (inactive); in the test on CCRF-CEM it was 16.9 µM (inactive); in the test on DU-145 it was 16.9 µM (inactive); in the test with HCC 2998, 16.4 µM (inactive); with IGROV-1, 17.9 µM (inactive). Also, the GI50 in the test with KM12 was 16.3 µM (inactive); in the test on M14 it was 14.3 µM (inactive); in the test on MCF7, 29.4 µM (inactive); in the test with MDA-MB-231, 23.4 µM (inactive); with Malme-3M, 30 µM (inactive); with RPMI-8226, 15.3 µM (inactive). The GI50 was 15.3 µM (inactive) in the test with SF-295; 15.4 µM (inactive) in the test with SF-539; 23.5 µM (inactive) in the test on SK-MEL-28; 27.1 µM (inactive) in the test on SK-MEL-2; 20.7 µM (inactive) in the test with SK-MEL-5; 15.5 µM (inactive) with UACC-62.

For the molecule `O=C1c2ccccc2C(=O)N1CCSCC(CO)SCCN1C(=O)c2ccccc2C1=O` (stereo not drawn), the GI50 in the test with A498 is > 100 µM (inactive); in the test on A549, > 100 µM (inactive); in the test with CCRF-CEM, 59.8 µM (inactive); with DU-145, > 100 µM (inactive); in the test on HCC 2998, > 100 µM (inactive); in the test with HT-29, > 100 µM (inactive). The GI50 with IGROV-1 is > 100 µM (inactive); with KM12, > 100 µM (inactive); in the test on M14, 96.8 µM (inactive); in the test with MCF7, > 100 µM (inactive); with MDA-MB-231, > 100 µM (inactive); in the test with Malme-3M, > 100 µM (inactive). The GI50 with RPMI-8226 is 80.2 µM (inactive); with SF-295 it was > 100 µM (inactive); in the test with SK-MEL-28 it was > 100 µM (inactive); in the test on SK-MEL-2, > 100 µM (inactive); with SK-MEL-5, > 100 µM (inactive); in the test on UACC-62 it was 90.2 µM (inactive).

Take `C#C[C@]1(O)CC[C@H]2[C@@H]3CCC4=C/C(=N/NC(=O)c5cccc6cc7ccccc7nc56)CC[C@@H]4[C@H]3CC[C@@]21CC`: the GI50 in the test on A498 is > 100 µM (inactive); in the test with A549, 47 µM (inactive); in the test with CCRF-CEM, 40.5 µM (inactive); in the test on DU-145, > 100 µM (inactive); in the test on HCC 2998, > 100 µM (inactive); in the test on HT-29, 41.4 µM (inactive). The GI50 was 87.9 µM (inactive) in the test on IGROV-1; > 100 µM (inactive) in the test with KM12; 84.7 µM (inactive) in the test on M14; 38.4 µM (inactive) with MCF7; > 100 µM (inactive) in the test on MDA-MB-231; 75.5 µM (inactive) in the test on OVCAR-3. For the same molecule, the GI50 in the test with RPMI-8226 is 71.6 µM (inactive); with SF-539, 33.9 µM (inactive); in the test on SK-MEL-28, > 100 µM (inactive); in the test on SK-MEL-2 it was > 100 µM (inactive); in the test on SK-MEL-5, 21.9 µM (inactive); in the test with UACC-62 it was 95.5 µM (inactive).

`O=C(C[n+]1ccccc1)N/N=C(\C(=O)NC1=C(Cl)C(=O)c2ccccc2C1=O)c1c(O)c2ccc(O)cc2oc1=O`: the GI50 in the test on A498 is 19.9 µM (inactive); with A549 it was 3.03 µM (inactive); in the test on CCRF-CEM it was 4.94 µM (inactive); with DU-145, 3.59 µM (inactive); in the test with HCC 2998, 3.4 µM (inactive); in the test on HT-29 it was 3.08 µM (inactive). The GI50 in the test with IGROV-1 was 2.41 µM (inactive); with KM12 it was 4.85 µM (inactive); with M14, 3.5 µM (inactive); with MCF7, 3.48 µM (inactive); with MDA-MB-231 it was 7.73 µM (inactive); in the test on OVCAR-3 it was 3.37 µM (inactive). Also, the GI50 was 5.96 µM (inactive) in the test with RPMI-8226; 3.05 µM (inactive) with SF-295; 4.28 µM (inactive) in the test on SF-539; 2.94 µM (inactive) with SK-MEL-28; 2.31 µM (inactive) with SK-MEL-2; 1.06 µM (active) in the test on SK-MEL-5. Moreover, in the test on UACC-62, the GI50 was 1.84 µM (inactive).

For the molecule `O=C1C(Cl)=C(N2C(=O)CCCC2=O)C(=O)c2ccccc21`, the GI50 in the test with A498 was 16.8 µM (inactive); with A549, 22.1 µM (inactive); in the test with CCRF-CEM, 4.13 µM (inactive); in the test with DU-145 it was 16.6 µM (inactive); in the test on HCC 2998, 16.6 µM (inactive); in the test on HT-29, 15.7 µM (inactive). The GI50 in the test on IGROV-1 was 15.8 µM (inactive); with KM12, 62.1 µM (inactive); in the test with M14 it was 19.5 µM (inactive); in the test on MCF7 it was 16.8 µM (inactive); with MDA-MB-231 it was 20 µM (inactive); in the test on OVCAR-3, 31.6 µM (inactive). The GI50 in the test with RPMI-8226 was 7.45 µM (inactive); with SF-295 it was 82.2 µM (inactive); in the test with SF-539, 18.5 µM (inactive); in the test on SK-MEL-28, 13.9 µM (inactive); in the test with SK-MEL-2 it was 22.5 µM (inactive); with SK-MEL-5, 16.6 µM (inactive). Besides, the GI50 in the test on UACC-62 was 19.3 µM (inactive).

For the molecule `N#Cc1c(-c2ccccc2)cc(-c2ccccc2)n(C2OCC(O)C(O)C2O)c1=S` (stereo not drawn), the GI50 with A498 was 19.7 µM (inactive); in the test on A549, 22.8 µM (inactive); in the test with CCRF-CEM it was 16.4 µM (inactive); in the test with DU-145, 19.7 µM (inactive); in the test on HT-29, 23 µM (inactive); in the test with IGROV-1 it was 17.7 µM (inactive). For the same molecule, the GI50 with KM12 was 12.9 µM (inactive); in the test on M14, 27.2 µM (inactive); in the test with MCF7, 20.1 µM (inactive); in the test on MDA-MB-231, 0.946 µM (active); with Malme-3M, 30.7 µM (inactive); in the test on OVCAR-3, 22.3 µM (inactive). For the same molecule, the GI50 is 10.4 µM (inactive) with RPMI-8226; 18.5 µM (inactive) in the test with SF-295; 22.2 µM (inactive) in the test with SF-539; 26.6 µM (inactive) in the test on SK-MEL-28; 25.4 µM (inactive) with SK-MEL-2; 14.7 µM (inactive) with SK-MEL-5. Besides, the GI50 with UACC-62 was 1.66 µM (inactive).

On to `O=C1NCC2(CCNCC2)N1`, for which the GI50 in the test with A498, in the test on A549, in the test with CCRF-CEM, with DU-145, with HCC 2998 and with HT-29 was > 100 µM (inactive) each time. Moreover, the GI50 in the test with IGROV-1, in the test on KM12, with M14, with MCF7, in the test on MDA-MB-231 and in the test on Malme-3M was > 100 µM (inactive) in each case. For the same molecule, the GI50 in the test on RPMI-8226, with SF-295, in the test with SF-539, in the test with SK-MEL-28, in the test on SK-MEL-5 and in the test on UACC-62 was > 100 µM (inactive) in each case.

With `CN(CC(=O)Nc1ccccc1C(=O)O)c1ccccc1`, the GI50 with A498, in the test with A549, in the test with CCRF-CEM, in the test with DU-145, with HCC 2998 and in the test on HT-29 was > 100 µM (inactive) in each case. Besides, the GI50 in the test with IGROV-1, in the test on KM12, in the test with M14, in the test on MCF7, in the test on MDA-MB-231 and with Malme-3M was > 100 µM (inactive) in each case. For the same molecule, the GI50 with OVCAR-3, with RPMI-8226, with SF-295, in the test on SF-539, in the test on SK-MEL-28 and with SK-MEL-5 was > 100 µM (inactive) throughout.

Consider `O=CNNC(=O)CSc1nc2ccc(I)cc2c(=O)n1Cc1ccccc1`, for which the GI50 was 37.9 µM (inactive) in the test on A498; 37.4 µM (inactive) in the test with A549; 23.7 µM (inactive) in the test with CCRF-CEM; 43.7 µM (inactive) in the test on DU-145; 26.8 µM (inactive) in the test on HCC 2998; 34.9 µM (inactive) in the test with HT-29. Besides, the GI50 was 32.3 µM (inactive) with IGROV-1; 33.4 µM (inactive) with KM12; 31.6 µM (inactive) in the test with M14; 37.2 µM (inactive) with MCF7; 29.3 µM (inactive) with MDA-MB-231; 21.8 µM (inactive) with OVCAR-3. The GI50 in the test with RPMI-8226 was < 0.01 µM (active); in the test on SF-295, 40.6 µM (inactive); in the test with SF-539 it was 34.6 µM (inactive); in the test on SK-MEL-28 it was 79.8 µM (inactive); with SK-MEL-2, 20.9 µM (inactive); in the test with SK-MEL-5, 18.6 µM (inactive). The GI50 with UACC-62 was 20.3 µM (inactive).
